Source: PMC3337333 (Bioorganic & medicinal chemistry letters, 2012)

Columns and labels:
Hsp90 in HCT 116 cells = assay: Immunofluorescence staining of Hsp90 in treated colon cancer cells; type: cell-based; settings: 17-AAG 24 hours 200 nM, compound 3 and compound 4 72 hours 5 µM, polyclonal antibody to Hsp90
[1] = molecular target: Hsp90-TPR protein complexes; settings: C-terminal binder; ref [21]; cited from earlier work
apoptosis = settings: ref [4]; cited from earlier work

C=CCNC1=C2C[C@@H](C)C[C@H](OC)[C@H](O)[C@@H](C)/C=C(\C)[C@H](OC(N)=O)[C@@H](OC)/C=C\C=C(/C)C(=O)NC(=CC1=O)C2=O [17-AAG, 17-(allylamino)-17-demethoxygeldanamycin]
Hsp90 staining in cytosol versus DMSO control (Hsp90 in HCT 116 cells): intensify in brightness

CO[C@@H]1[C@@H](OC(N)=O)[C@@H](O)[C@H](Oc2ccc3c(O)c(NC(=O)c4ccc(O)c(CC=C(C)C)c4)c(=O)oc3c2C)OC1(C)C [novobiocin]
IC50, inhibition of binding between Hsp90 and four TPR-containing co-chaperones [1]: millimolar range

Sansalvamide A-amide [compound 1]
induction of apoptosis (apoptosis): induce apoptosis
